Several values for one entry are separate records, joined by “and”; a condition that tells them apart may be missing. Equal entries are not always repeated.
Assay: mn = molality of the nth substance listed, in mol/kg
Conditions: 298.15 K, 101.33 kPa, Liquid

CCCC[N+](CCCC)(CCCC)CCCC.[Br-] [tetrabutylammonium bromide] + O
Conditions	mass density [kg/m3]
m1 = 0.0509	998.2
m1 = 0.1034	999.39
m1 = 0.2709	1003.18
m1 = 0.589	1010.09
m1 = 0.7318	1013.27

CC[N+](CC)(CC)CC.[Br-] [tetraethylammonium bromide] + O
Conditions	mass density
m1 = 0.102	1000.71 kg/m3
m1 = 0.4023	1010.95 kg/m3
m1 = 0.549	1015.83 kg/m3
m1 = 1.212	1035.35 kg/m3 and 1035.67 kg/m3

C[N+](C)(C)C.[Br-] [tetramethylammonium bromide] + O
Conditions	mass density
m1 = 0.2579	1006.85 kg/m3
m1 = 0.258	1006.83 kg/m3
m1 = 0.2581	1006.9 kg/m3
m1 = 0.532	1016.59 kg/m3
m1 = 0.5322	1016.42 kg/m3
m1 = 0.5325	1016.59 kg/m3
m1 = 0.8105	1025.86 kg/m3
m1 = 0.8239	1026.24 kg/m3
m1 = 1.134	1036.07 kg/m3 and 1035.72 kg/m3
m1 = 1.839	1046.9 kg/m3

Source: the NIST ThermoML archive (doi:10.1016/j.jct.2003.09.008)
